Legend:
[1] = system: MMP-1; assay: MMP-1 expression in human dermal fibroblasts, Western blot; type: cell-based
Experimental: Cells were then harvested after 48 hours and western blot analysis was performed.
Cells were harvested by Trypsin/EDTA and lysed with cell lysis buffer containing 50 mM Tris-HCl (pH7.40), 150 mM NaCl, 10 mM EDTA, 5 mM EGTA, 1% TritonX-100™, 0.5% Igepal CA-630, 0.025% NaN3 and protease inhibitor cocktail (Sigma™). Cell debris was removed by centrifugation at 20,000×g for 10 minutes. The protein concentration in supernatant was determined using the MicroBCA™ method (Pierce™, Rockford, Ill.). Proteins in supernatant were mixed with protein sample loading buffer (final concentration: 60 mM Tris-HCl (pH 6.80), 2% SDS, 10% glycerol, 1.5% β-mercaptoethanol, 0.002% bromophenol blue) and size fractioned by 10% of SDS-polyacrylamide gel. After proteins were transferred onto nitrocellulose membrane by iBlot™ (Invitrogen Life Technologies™), non-specific binding were blocked with phosphate buffer saline twenty 20 (PBS-T) containing 5% skim milk for 1 hour. The membrane was then incubated with primary antibody overnight. After incubation with a secondary antibody for 1 hour, protein bands were visualized by an enhanced chemiluminescence (ECL™) detection system (Santa Cruz Biotechnology™, Santa Cruz, Calif.). The primary antibodies used in this study were: mouse monoclonal anti-human MMP-1 (R&D Systems™, Minneapolis, Minn.), mouse monoclonal anti-human MMP-3 (R&D System™), rabbit monoclonal anti-human MMP-2 (Epitomics™, Burlingame, Calif.), rabbit polyclonal anti-phospho-MEK1/2 (Ser217/221™) (Cell Signaling Technology™, Danvers, Mass.), rabbit polyclonal anti-phospho-p44/42 MAPK (Thr202/Tyr204) (Cell Signaling Technology™), monoclonal anti-β-actin (Sigma™), and mouse anti-type-1 procollagen (Developmental Studies Hybridoma Bank™, Iowa City, Iowa). The secondary antibodies were either goat anti-mouse IgG (H+L) HPR conjugate or goat anti-rabbit IgG (H+L) HPR conjugate (Bio-rad Laboratory™ (Mississauga, ON, Canada). Secondary antibodies were used at a concentration of 1:3000.

[2] = system: splenocytes; assay: ConA-induced splenocyte proliferation; type: cell-based; settings: for reduction in conA-induced splenocyte proliferation: 100 and 150 μg/ml
[3] = system: fibronectin; assay: Fibronectin mRNA in human dermal fibroblasts, real-time PCR; type: cell-based; settings: various concentration
[4] = system: MEK-ERK1/2 signaling pathway; assay: Kynurenine-stimulated MMP-1 expression in dermal fibroblasts with MEK/ERK1/2 phosphorylation inhibitors; type: cell-based, human; settings: 100 μg/ml kynurenine
Experimental: Cells were harvested by Trypsin/EDTA and lysed with cell lysis buffer containing 50 mM Tris-HCl (pH7.40), 150 mM NaCl, 10 mM EDTA, 5 mM EGTA, 1% TritonX-100™, 0.5% Igepal CA-630, 0.025% NaN3 and protease inhibitor cocktail (Sigma™). Cell debris was removed by centrifugation at 20,000×g for 10 minutes. The protein concentration in supernatant was determined using the MicroBCA™ method (Pierce™, Rockford, Ill.). Proteins in supernatant were mixed with protein sample loading buffer (final concentration: 60 mM Tris-HCl (pH 6.80), 2% SDS, 10% glycerol, 1.5% β-mercaptoethanol, 0.002% bromophenol blue) and size fractioned by 10% of SDS-polyacrylamide gel. After proteins were transferred onto nitrocellulose membrane by iBlot™ (Invitrogen Life Technologies™), non-specific binding were blocked with phosphate buffer saline twenty 20 (PBS-T) containing 5% skim milk for 1 hour. The membrane was then incubated with primary antibody overnight. After incubation with a secondary antibody for 1 hour, protein bands were visualized by an enhanced chemiluminescence (ECL™) detection system (Santa Cruz Biotechnology™, Santa Cruz, Calif.). […]

[5] = system: MMP-3; assay: MMP-3 expression in human dermal fibroblasts, Western blot; type: cell-based
Experimental: Cells were then harvested by trypsinization and western blot analysis was performed.
(§1) Cell debris was removed by centrifugation at 20,000×g for 10 minutes. The protein concentration in supernatant was determined using the MicroBCA™ method (Pierce™, Rockford, Ill.). Proteins in supernatant were mixed with protein sample loading buffer (final concentration: 60 mM Tris-HCl (pH 6.80), 2% SDS, 10% glycerol, 1.5% β-mercaptoethanol, 0.002% bromophenol blue) and size fractioned by 10% of SDS-polyacrylamide gel. After proteins were transferred onto nitrocellulose membrane by iBlot™ (Invitrogen Life Technologies™), non-specific binding were blocked with phosphate buffer saline twenty 20 (PBS-T) containing 5% skim milk for 1 hour. The membrane was then incubated with primary antibody overnight. After incubation with a secondary antibody for 1 hour, protein bands were visualized by an enhanced chemiluminescence (ECL™) detection system (Santa Cruz Biotechnology™, Santa Cruz, Calif.). […] The secondary antibodies were either goat anti-mouse IgG (H+L) HPR conjugate or goat anti-rabbit IgG (H+L) HPR conjugate (Bio-rad Laboratory™ (Mississauga, ON, Canada). Secondary antibodies were used at a concentration of 1:3000.

[6] = system: type 1 procollagen; assay: Type 1 procollagen expression in dermal fibroblasts, Western blot; type: cell-based, human; settings: kynurenine analogues/metabolites, FIG. 10 bottom
Experimental: as §1

[7] = kynurenine isoforms, 50 μg/ml, 48 hours

In the case of `Nc1ccccc1C(=O)C[C@@H](N)C(=O)O` [D-kynurenine], the MMP-1 expression [1, 7] is reported as “increase”, the “reduction in conA-induced splenocyte proliferation” value (from here on “reduction”) ([2]; after 48 hours) is reported as “about 2 fold” and the “reduction” value ([2]; after 96 hours) is reported as ~5 fold.
With `Nc1ccccc1C(=O)C[C@H](N)C(=O)O` [L-kynurenine] the “activity on MMP-1 expression compared with the other isoforms” value ([1]; 50 μg/ml, 48 hours) was “more activity compared to other two isoforms”, the MMP-1 expression [1, 7] was “increase” and the “fibronectin expression (mRNA)” value [3] was “capable of down-regulating”. The “reduction” value ([2]; after 48 hours) was “about 2 fold” and the “reduction” value ([2]; after 96 hours) was ~5 fold.
In the case of `COc1cccc(-c2cc(=O)c3ccccc3o2)c1N` [PD98059], the “effect on kynurenine-stimulated MMP-1 expression” value ([4]; various concentration of PD98059, dose-dependent) is reported as “effectively prevented”.
`N#CC(=C(/N)Sc1ccccc1N)/C(C#N)=C(\N)Sc1ccccc1N` [U0126] was tested, and the “effect on up-regulation of MMP-1 expression by kynurenine” value ([4]; to M and 30 μM of U0126) was “significantly reduced”.
In the case of `O=C(O)c1cc(=O)c2ccccc2[nH]1` [kynurenic acid], the “MMP-1 induction (general statement)” value [1] is reported as “induce”, the “MMP1 protein expression 48 hours after treatment removal” value ([1]; 100 μg/ml for 48 hours, then 48 hours after removal) is reported as “remained higher than controls” and the “MMP1 expression versus untreated cells after treatment removal” value ([1]; 100 μg/ml for 48 hours, then another 24 hours after removal) is reported as “remained significantly higher”. For the same molecule, the “lasting effect on expression of MMP-1 relative to Kyn” value ([1]; 100 μg/ml for 48 hours, then removal) was “longer lasting effect”, the MMP1 expression ([1]; 100 μg/ml, at 48 hours after treatment) was “marked increase” and the “MMP-3 induction (general statement)” value [5] was “induce”. For the same molecule, the “expression of type 1 procollagen” value [6] was “effective at inhibiting”, the “effect on splenocyte proliferation compared with other metabolites” value [2] was “less effect” and the “reduction” value ([2]; after 96 hours) was ~5 fold.
For `N[C@@H](Cc1c[nH]c2ccccc12)C(=O)O` [tryptophan, reference compound], the “MMP-1 expression, presence of tryptophan versus tryptophan-depleted media” value ([1]; 25 μg/ml tryptophan, 48 hrs) was “no significant difference” and the MMP-1 expression ([1]; various concentration of tryptophan, 48 hours) was “failed to increase”.
With `O=C(O)c1cc(O)c2cccc(O)c2n1` [xanthurenic acid] the “MMP-1 induction (general statement)” value [1] was “induce”, the “MMP-3 induction (general statement)” value [5] was “induce” and the “expression of type 1 procollagen” value [6] was “effective at inhibiting”.

From patent US9737523B2, “Anti-fibrogenic compounds, methods and uses thereof” (priority 2013, dated 2017)
